Laboratory results taken from ChEMBL document CHEMBL3885881, “DrugMatrix”.

Species on record: Rattus norvegicus
Test: DrugMatrix - Regimen: Daily Repeat
Assay type: toxicity, organism-based, Sprague-Dawley
Design: regimen Daily Repeat, gender Male, age 6-8 weeks
Settings: in vivo, po, route oral GAVAGE, vehicle 100 % WATER; for ABSOLUTE BASOPHIL / ABSOLUTE EOSINOPHIL / ABSOLUTE LYMPHOCYTE / ABSOLUTE MONOCYTE / ABSOLUTE SEGMENTED NEUTROPHIL / BASOPHIL / EOSINOPHIL / ERYTHROCYTE COUNT / HEMATOCRIT / HEMOGLOBIN / LEUKOCYTE COUNT / LYMPHOCYTE / MEAN CORPUSCULAR HEMOGLOBIN / MEAN CORPUSCULAR HEMOGLOBIN CONCENTRATION / MEAN CORPUSCULAR VOLUME / MONOCYTE / NEUTROPHIL / NUCLEATED RED BLOOD CELLS / PLATELET COUNT: tissue Blood; for ALANINE AMINOTRANSFERASE / ALBUMIN / ALKALINE PHOSPHATASE / ASPARTATE AMINOTRANSFERASE / BLOOD UREA NITROGEN / CARBON DIOXIDE / CHLORIDE / CHOLESTEROL / CREATINE PHOSPHOKINASE / CREATININE / GLUCOSE / LACTATE DEHYDROGENASE / LIPASE / PHOSPHORUS / POTASSIUM / SODIUM / TOTAL BILIRUBIN / TOTAL PROTEIN / URIC ACID: tissue Plasma
[1] = 1 mg/kg, 120 h, dose level Low, time 5 day
[2] = 175 mg/kg, 72 h, dose level High, time 3 day
[3] = 175 mg/kg, 120 h, dose level High, time 5 day

Compound: CN1C2CCCC1CC(NC(=O)c1nn(C)c3ccccc13)C2 (centres undefined) [GRANISETRON]
- ABSOLUTE BASOPHIL [1]: 0 CELLS/uL
- ABSOLUTE EOSINOPHIL [1]: 0 CELLS/uL
- ABSOLUTE LYMPHOCYTE [1]: 8153 CELLS/uL
- ABSOLUTE MONOCYTE [1]: 97.67 CELLS/uL
- ABSOLUTE SEGMENTED NEUTROPHIL [1]: 549.33 CELLS/uL
- BASOPHIL [1]: 0%
- EOSINOPHIL [1]: 0%
- ERYTHROCYTE COUNT [1]: 5.09 x10E6/uL
- HEMATOCRIT [1]: 31.63%
- HEMOGLOBIN [1]: 12.5 G/DL
- LEUKOCYTE COUNT [1]: 8.8 x10E3/uL
- LYMPHOCYTE [1]: 92.67%
- MEAN CORPUSCULAR HEMOGLOBIN [1]: 24.53 pg
- MEAN CORPUSCULAR HEMOGLOBIN CONCENTRATION [1]: 39.6 G/DL
- MEAN CORPUSCULAR VOLUME [1]: 62.03 fL
- MONOCYTE [1]: 1%
- NEUTROPHIL [1]: 6.33%
- NUCLEATED RED BLOOD CELLS [1]: 0.67 /100WBC
- PLATELET COUNT [1]: 832 x10E3/uL
- ALANINE AMINOTRANSFERASE [1]: 51 u/L
- ALBUMIN [1]: 4.2 G/DL
- ALKALINE PHOSPHATASE [1]: 374 u/L
- ASPARTATE AMINOTRANSFERASE [1]: 84.33 u/L
- BLOOD UREA NITROGEN [1]: 16 mg/dL
- CARBON DIOXIDE [1]: 31 mmol/L
- CHLORIDE [1]: 101.67 MEQ/L
- CHOLESTEROL [1]: 74.33 mg/dL
- CREATINE PHOSPHOKINASE [1]: 215.67 u/L
- CREATININE [1]: 0.16 mg/dL
- GLUCOSE [1]: 149.33 mg/dL
- LACTATE DEHYDROGENASE [1]: 154 u/L
- LIPASE [1]: 9 u/L
- PHOSPHORUS [1]: 10.23 mg/dL
- POTASSIUM [1]: 5.82 MEQ/L
- SODIUM [1]: 145 MEQ/L
- TOTAL BILIRUBIN [1]: 0.23 mg/dL
- TOTAL PROTEIN [1]: 6.23 G/DL
- URIC ACID [1]: 0.7 mg/dL
- ABSOLUTE BASOPHIL [2]: 0 CELLS/uL
- ABSOLUTE EOSINOPHIL [2]: 0 CELLS/uL
- ABSOLUTE LYMPHOCYTE [2]: 10622.67 CELLS/uL
- ABSOLUTE MONOCYTE [2]: 19.67 CELLS/uL
- ABSOLUTE SEGMENTED NEUTROPHIL [2]: 557.67 CELLS/uL
- BASOPHIL [2]: 0%
- EOSINOPHIL [2]: 0%
- ERYTHROCYTE COUNT [2]: 5.65 x10E6/uL
- HEMATOCRIT [2]: 35.33%
- HEMOGLOBIN [2]: 13.77 G/DL
- LEUKOCYTE COUNT [2]: 11.2 x10E3/uL
- LYMPHOCYTE [2]: 93.67%
- MEAN CORPUSCULAR HEMOGLOBIN [2]: 24.43 pg
- MEAN CORPUSCULAR HEMOGLOBIN CONCENTRATION [2]: 38.93 G/DL
- MEAN CORPUSCULAR VOLUME [2]: 62.63 fL
- MONOCYTE [2]: 0.33%
- NEUTROPHIL [2]: 6%
- NUCLEATED RED BLOOD CELLS [2]: 0 /100WBC
- PLATELET COUNT [2]: 1057.67 x10E3/uL
- ALANINE AMINOTRANSFERASE [2]: 72.67 u/L
- ALBUMIN [2]: 4 G/DL
- ALKALINE PHOSPHATASE [2]: 502.33 u/L
- ASPARTATE AMINOTRANSFERASE [2]: 95 u/L
- BLOOD UREA NITROGEN [2]: 13 mg/dL
- CARBON DIOXIDE [2]: 33 mmol/L
- CHLORIDE [2]: 100 MEQ/L
- CHOLESTEROL [2]: 75.67 mg/dL
- CREATINE PHOSPHOKINASE [2]: 557.67 u/L
- CREATININE [2]: 0.12 mg/dL
- GLUCOSE [2]: 149.33 mg/dL
- LACTATE DEHYDROGENASE [2]: 186 u/L
- LIPASE [2]: 10 u/L
- PHOSPHORUS [2]: 11.47 mg/dL
- POTASSIUM [2]: 5.72 MEQ/L
- SODIUM [2]: 145.1 MEQ/L
- TOTAL BILIRUBIN [2]: 0.17 mg/dL
- TOTAL PROTEIN [2]: 5.83 G/DL
- URIC ACID [2]: 0.5 mg/dL
- ABSOLUTE BASOPHIL [3]: 0 CELLS/uL
- ABSOLUTE EOSINOPHIL [3]: 0 CELLS/uL
- ABSOLUTE LYMPHOCYTE [3]: 7981.33 CELLS/uL
- ABSOLUTE MONOCYTE [3]: 176.67 CELLS/uL
- ABSOLUTE SEGMENTED NEUTROPHIL [3]: 675.33 CELLS/uL
- BASOPHIL [3]: 0%
- EOSINOPHIL [3]: 0%
- ERYTHROCYTE COUNT [3]: 5.68 x10E6/uL
- HEMATOCRIT [3]: 35.93%
- HEMOGLOBIN [3]: 13.87 G/DL
- LEUKOCYTE COUNT [3]: 8.83 x10E3/uL
- LYMPHOCYTE [3]: 90%
- MEAN CORPUSCULAR HEMOGLOBIN [3]: 24.47 pg
- MEAN CORPUSCULAR HEMOGLOBIN CONCENTRATION [3]: 38.67 G/DL
- MEAN CORPUSCULAR VOLUME [3]: 63.37 fL
- MONOCYTE [3]: 2%
- NEUTROPHIL [3]: 8%
- NUCLEATED RED BLOOD CELLS [3]: 0 /100WBC
- PLATELET COUNT [3]: 1308.33 x10E3/uL
- ALANINE AMINOTRANSFERASE [3]: 86.67 u/L
- ALBUMIN [3]: 4.03 G/DL
- ALKALINE PHOSPHATASE [3]: 415.33 u/L
- ASPARTATE AMINOTRANSFERASE [3]: 102 u/L
- BLOOD UREA NITROGEN [3]: 16.67 mg/dL
- CARBON DIOXIDE [3]: 31.33 mmol/L
- CHLORIDE [3]: 100.33 MEQ/L
- CHOLESTEROL [3]: 67.33 mg/dL
- CREATINE PHOSPHOKINASE [3]: 224.33 u/L
- CREATININE [3]: 0.19 mg/dL
- GLUCOSE [3]: 146.33 mg/dL
- LACTATE DEHYDROGENASE [3]: 136.33 u/L
- LIPASE [3]: 11.67 u/L
- PHOSPHORUS [3]: 11.97 mg/dL
- POTASSIUM [3]: 5.51 MEQ/L
- SODIUM [3]: 146.57 MEQ/L
- TOTAL BILIRUBIN [3]: 0.17 mg/dL
- TOTAL PROTEIN [3]: 5.6 G/DL
- URIC ACID [3]: 0.57 mg/dL
